The source of these data is publication PMC7725785, “TRIB3 promotes MYC-associated lymphoma development through suppression of UBE3B-mediated MYC degradation” (Nature Communications, 2020).

Assay [1] relates to MYC ubiquitination. Kind of assay: UBE3B-mediated MYC ubiquitination in HEK 293T cells with GSK3 inhibitor. Particulars: GSK3 inhibitor 10 µM for 12 hr, Co-IP, result in words. Type of assay: cell-based. As for the experimental part: HEK 293T cells were cotransfected with Myc-tagged MYC, HA-tagged or Flag-tagged ubiquitin, and other indicated plasmids. Cells were pretreated for 6 h with MG132 (Sigma Aldrich, C2211) at a concentration of 20 μM, and cell extracts were prepared using lysis buffer containing 1% TX-100 supplemented with 1 mg/ml iodoacetamide. We used a monoclonal anti-HA Affinity Gel (Bimake.com, B23302) or a ubiquitin antibody (CST, #3933S, 5 μg/IP) to purify ubiquitinylated proteins. Precipitates were analyzed by immunoblot with an anti-MYC antibody (CST, #9402 S, 1:1000).
Suppleme n t a ry F i g ur e 4 . U B E3 B I n d uc e d MYC Ubiquitina tion a t Lys ine 4 27 . Re la te d to Fig. 3 . […]
(d) The direct interaction of UBE3B and MYC in the purified system. […] HEK 293T cells were transfected with th e indicated mutants of MYC, and the ubiquitination of MYC was detected by Co -IP assays. […] HEK 293T cells were transfected with the indicated mutants of MYC, and the ubiquitination of MYC was detected by Co-IP assays. […] HEK 293T cells were transfected with the indicated mutants of MYC, and the degradation of MYC was detected by western blotting. […]
Raji cells were transfected with the indicated siRNAs and plasmids, and the ubiquitination of MYC was detected by Co-IP assays. […] Th e MY C protein was detected by Western blot analysis with GAPDH as a loading control. […] The MYC ubiquitination was detected by Co-IP assays . […]

For assay [2], the system named is MYC protein in Raji cells. Kind of assay: MYC degradation in control or TRIB3-deleted Raji cells with CHX or CHX plus MG132. Type of assay: cell-based, human. The note with it: result in words. On the procedure:
Co-IP experiments were performed as described previously. Briefly, cells were collected and lysed for 30 min on ice. Soluble lysates were incubated with the indicated antibodies at 4 °C overnight, followed by incubation with Protein A/G Plus-Agarose (Santa Cruz Biotechnology, TX, USA) at 4 °C for 2 h. Soluble lysates were incubated with the indicated Anti-Myc magnetic beads (Bimake.com, B26302), Anti-Flag Affinity Gel (Bimake.com, B23102) or Anti-HA Affinity Gel (Bimake.com, B23302) at 4 °C overnight. Immunocomplexes were separated from the beads and then boiled for 10 min. The precipitated proteins were subjected to SDS-PAGE and blotted with specific antibodies. For immunoblotting assays, proteins were extracted from cells, spleens, or lymphoma tissues using RIPA buffer (Cell Signaling Technology, MA, USA). A BCA Protein Assay Kit was used to determine protein concentrations. Protein extracts were separated by SDS-PAGE, transferred onto PVDF membranes, and subjected to immunoblot analysis. Western blot images were captured by a Tanon 5200 chemiluminescent imaging system (Tanon, Shanghai, […]). Human lymphoma and benign LN paraffin tissue microarrays were purchased from US Biomax (LM482a).

Assay [3] has as its system Myc^EμCre^ERT2Trib3^F/+ mice. Kind of assay: Survival of Myc^EμCre^ERT2Trib3^F/+ mice treated with vehicle or tamoxifen (induced Trib3 deletion). The class given is in vivo, mouse. An excerpt: NOD-scid IL2Rg^null (NSG) mice (4–6 weeks old, male) were purchased from the Nanjing Biomedical Research Institute of Nanjing University (Nanjing, China). Trib3-knockout (Trib3^loxP/loxP, Trib3^F/F) mice (5–6 weeks old, male) were generated as described in our previous study (Li et al.[18]). Cre^ERT2 (B6. Cg-Tg(CAG-cre/Esr1*)5Amc/J) mice (5–6 weeks old, 1 male and 2 females) (The Jackson Laboratory, 004682) were obtained from The Jackson Laboratory (CA, USA). When Cre^ERT2 transgenic mice bred with mice containing loxP-flanked sequences, tamoxifen-inducible Cre-mediated recombination results in deletion of the floxed sequences in widespread cells/tissues of the offspring. Cre^Lck (B6. Cg-Tg(Lck-cre)548Jxm/J) mice (5–6 weeks old, 1 male and 2 females; The Jackson Laboratory, 003802), and Cre^CD19 (B6.129P2(C)-Cd19tm1(cre)Cgn/J) mice (5–6 weeks old, 1 male and 2 females; The Jackson Laboratory, 006785) were obtained from the Shanghai Research Center for Model Organisms (Shanghai, China). B6.129P2-Lyz2tm1(cre)/Nju (LysM-Cre) mice(5–6 weeks old, 1 male and 2 females; N000056) were obtained from Model Animal Resource Information Platform. […] Deletion of Trib3 was corroborated by quantitative PCR and immunoblot analysis. […]

The target of assay [4] is T1, TRIB3 protein (Homo sapiens, UniProt Q96RU7).
T1 construct: GST; purchased Sinobiological Inc. 10731-H09B
T1 sequence (Q96RU7 1-358): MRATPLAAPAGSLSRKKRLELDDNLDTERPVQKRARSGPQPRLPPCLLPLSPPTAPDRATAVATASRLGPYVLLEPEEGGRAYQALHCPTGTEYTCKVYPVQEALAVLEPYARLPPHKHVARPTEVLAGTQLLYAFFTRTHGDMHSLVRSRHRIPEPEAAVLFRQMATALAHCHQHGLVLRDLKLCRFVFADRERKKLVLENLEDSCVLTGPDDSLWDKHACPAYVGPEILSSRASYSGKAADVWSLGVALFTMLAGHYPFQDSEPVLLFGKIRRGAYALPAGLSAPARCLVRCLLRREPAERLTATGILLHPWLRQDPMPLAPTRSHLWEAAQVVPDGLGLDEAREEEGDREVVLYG
Briefly: SPR kinetic interaction of α-helical peptides (CM1-CM4) with TRIB3. Type of assay: binding. Particulars: result in words. On the procedure:
(§1) Binding kinetics between MYC and UBE3B, TRIB3 and the indicated α helical peptides, MAX and the indicated α helical peptides, or MYC and MAX were analyzed using a BIAcore T200 instrument (GE Healthcare, CA, USA) as described previously. Briefly, binding reactions were performed in HBS-EP buffer (GE Healthcare) at pH 7.4. TRIB3/MYC/MAX protein was coated on the flow cell of a CM5 sensor chip by direct immobilization. Another flow cell, not coated with an immobilized protein, was used to evaluate nonspecific binding. The binding analyses were performed at a flow rate of 25 μl/min at 25 °C. A total of 0–200 nM peptide or 0–500 nM TRIB3 protein was passed over the surface of the sensor chip. The association rate constant (Ka) and the dissociation rate constant (Kd) were calculated according to the BIA evaluation software. The dissociation constant (KD) was determined by Kd/Ka.
For orientation: In SPR one partner is held on a chip, and binding of the other changes the refractive index at the surface.

Assay [5] has as its system MAX protein. Briefly: SPR kinetic interaction of α-helical peptides (CM1-CM4) with MAX. The class given is binding. Particulars: result in words. As for the experimental part: as §1
The subject of assay [6] is MAX and MYC. Briefly: SPR kinetic interaction of MAX and MYC proteins with indicated peptides (CM1-CM4). The class given is binding. Particulars: result in words. As for the experimental part: as §1
Assay [7] has as its system TRIB3 and MYC. Briefly: SPR kinetic interaction of TRIB3 and MYC proteins with or without CM4. The class given is binding. The note with it: in vitro, result in words. As for the experimental part: as §1

Where a SMILES comes first, the peptide text is derived from it. The star is where a group is joined. Cbz = O=C(OCc1ccccc1)*

`Cc1c[nH]c(-c2cnc(NCCNc3ccc(C#N)cn3)nc2-c2ccc(Cl)cc2Cl)n1` [CT99021]: the “UBE3B-mediated MYC ubiquitination” value in assay [1] is recorded as “decreased”.
In the case of `CC(C)C[C@@H](C=O)NC(=O)[C@H](CC(C)C)NC(=O)[C@H](CC(C)C)NC(=O)OCc1ccccc1` [MG132] (Cbz-Leu-Leu-Leu-aldehyde), in assay [2], the “effect on the shortened MYC half-life induced by TRIB3 knockdown” value is recorded as “reversed”.
In the case of `CC/C(=C(\c1ccccc1)c1ccc(OCCN(C)C)cc1)c1ccccc1` [Tamoxifen, tamoxifen], in assay [3] (tamoxifen 250 mg/kg i.p. (induces Trib3 deletion), result in words), the “survival of lymphoma mice” value is “none of the tamoxifen-treated Myc^Eμ Cre^ERT2Trib3^F/+ mice died within 180 days”. Moreover, the “Survival status at day 180 (0: alive, 1: dead)” value in assay [3] (tamoxifen 250 mg/kg, status of individual mice at Day 180, Fig 1k source data) was determined as 0.
Turning to “ERQRRNELKRSFFALR [CM1, α-helical peptide derived from C terminus (HLH domain) of MYC]”, the “binding affinity for TRIB3” value in assay [4] is recorded as “only CM4 displayed a high binding affinity”. Besides, the “ability to bind MAX” value in assay [5] was “showed a high ability to bind MAX”. Further, the “effect on the binding of MYC and MAX” value in assay [6] is “decreased the binding of MYC and MAX”.
Consider “KVVILKKATAYILSV [CM2, α-helical peptide derived from C terminus of MYC]”, for which, in assay [4], the “binding affinity for TRIB3” value is “only CM4 displayed a high binding affinity”. In addition, the “ability to bind MAX” value in assay [5] is listed as “not”. Besides, in assay [6], the “effect on the binding of MYC and MAX” value was “not”.
For the compound “LRKERQRLEKQLHK [scramble peptide of CM4, reference compound]”, the “effect on the binding affinity of TRIB3 and MYC” value in assay [7] is “not”.
As for “QAEEQKLISEEDLLR [CM3, α-helical peptide derived from C terminus of MYC]”, the “binding affinity for TRIB3” value in assay [4] is “only CM4 displayed a high binding affinity”. In addition, the “ability to bind MAX” value in assay [5] is “not”. Also, in assay [6], the “effect on the binding of MYC and MAX” value was “not”.
